Results reported in patent publication US6893633B2, “Methods and compositions for promoting the maturation of monocytes” (Maxim Pharmaceuticals, Inc., priority 2000, dated 2005).

Legend:
[1] = system: metastatic melanoma of the liver; conditions: histamine phosphate 10 mg/day with G-CSF 200,000 U/kg/day
Procedure: A subject presenting with metastatic melanoma of the liver is administered 200,000 U/kg/day of G-CSF and histamine phosphate at a dose of 10 mg/day.

[2] = system: CD86 antigen on human monocytes; experiment: CD86 antigen expression on human monocytes after treatment with histamine and/or GM-CSF; type: cell-based
From the text: Separation of monocytes. […] Hospital, Göteborg, Sweden. […] Treatment and cell staining.

[3] = system: CD3+ T cells, CD3-/56+ NK cells, and CD3+/56+ NK/T cells; conditions: apoptosis induced by autologous MO or GR; p<0.001
From the text: (§1) In human liver, NK-cells as well as NK/T-cells are much more abundant than in peripheral blood. […] All data are the mean±s.e.m. (n=15-30 blood donors).

prostate cancer = conditions: histamine dihydrochloride 4 mg/day with CSF 300,000 U/kg/day and IL-12 100,000 U/kg/day
Procedure: A subject presenting with prostate cancer is administered 300,000 U/kg/day of CSF, 100,000 U/kg/day of IL-12, and histamine dihydrochloride at a dose of 4 mg/day.

[4] = system: monocytes HLA-DR expression
NK cells = conditions: human, 25 μM
From the text: as §1

NK/T cells = conditions: human, 25 μM
From the text: as §1

T cells = conditions: human, 25 μM
From the text: as §1

Plasmodia species = experiment: Treatment of malaria infection; type: in vivo; conditions: serotonin 6 mg/day with GM-CSF 100,000 U/kg/day, parenteral
Procedure: A subject presenting with malaria is parenterally administered GM-CSF at a rate of 100,000 U/kg/day and serotonin at a dosage of 6 mg/day. The composition acts to enhance monocyte maturation, thereby allowing the subject's immune system to eradicate cells infected with Plasmodia species. Specifically, serotonin enhances the monocyte maturation-promoting activity of […]. An increase in the number of dendritic cells presenting antigens associated with Plasmodia is observed. T-cells recognize the Plasmodia antigens, as foreign, attack, and kill the cells. The number of infected cells decreases.

malignant melanoma = conditions: melanoma patients with stage III or stage IV disease; cited from earlier work

NCCc1c[nH]cn1.O=P(O)(O)O [histamine phosphate]
tumor mass [1]: decrease

Cl.Cl.NCCc1c[nH]cn1 [histamine, histamine dihydrochloride]
intensity of cell surface expression of CD86 ([2]; histamine treatment alone): moderately enhanced
prevention of apoptosis in all cell types [3]: significantly prevented
tumor mass (prostate cancer): decrease
monocytes HLA-DR expression [4]: up-regulated

OO [hydrogen peroxide]
NK cells that became apoptotic (NK cells): 65±7%
NK/T cells that became apoptotic (NK/T cells): 78±7%
T cells that became apoptotic (T cells): 35±5%

NCCc1c[nH]c2ccc(O)cc12 [serotonin]
number of dendritic cells presenting antigens associated with Plasmodia (Plasmodia species): increase
number of infected cells (Plasmodia species): decreases

granulocyte-macrophage colony-stimulating factor [GM-CSF]
mean of the monocytes that expressed CD86 ([2]; overnight incubation (16 hrs), GM-CSF 0.15 μg/ml, histamine dihydrochloride 10 μM): 88%
median survival time vs matched control patients (malignant melanoma): increased by a factor of three
